Measured values as given in the Kinase Knowledgebase extract (Sharma et al. 2016).

These compounds were tested against CDK2 (human) (UniProt P24941) (assay: Enzyme Assay).
With `O=c1[nH][nH]c2cc(CCCONc3ccccn3)ccc12` the Ki was < 1000 nM.
With `Cc1cc(Nc2cc(COc3ccc4c(=O)[nH][nH]c4c3)nc3c2CCCCC3)n[nH]1` the Ki was < 1000 nM.
In the case of `Cc1cc(Nc2cc(-c3ccco3)[nH]n2)nc(Nc2ccc3c(=O)[nH][nH]c3c2)n1`, the Ki is reported as < 1000 nM.
With `Cc1cc(Nc2cc(-c3c(C)cccc3C)nc(Sc3ccc4c(=O)[nH][nH]c4c3)n2)n[nH]1` the Ki was < 1000 nM.
For `CC(=O)Nc1cccc(-c2cc(Nc3cc(C)[nH]n3)nc(Sc3ccc4c(=O)[nH][nH]c4c3)n2)c1`, the Ki was < 1000 nM.
With `O=c1[nH][nH]c2cc(CCC3COCC(Nc4ccccn4)C3)ccc12` (stereo not given) the Ki was < 1000 nM.
With `O=c1[nH][nH]c2ccc(-c3nc(Nc4cc(C5CCCC5)[nH]n4)c4ccccc4n3)cc12` the Ki was < 1000 nM.
In the case of `Cc1cc(Nc2cc(CSc3ccc4c(=O)[nH][nH]c4c3)nc3ccccc23)n[nH]1`, the Ki is reported as < 1000 nM.
For `N#Cc1c(-c2ncnc(Nc3n[nH]c4c3CCCC4)n2)ccc2[nH][nH]c(=O)c12`, the Ki was < 1000 nM.
For `COC[C@H]1CCN(C(=O)c2cc(Nc3nc(-c4ccc5[nH][nH]c(=O)c5c4)nc4ccccc34)n[nH]2)C1`, the Ki was < 1000 nM.
`O=c1[nH][nH]c2ccc(C3COCC(Nc4cc(C5CC5)[nH]n4)C3)cc12` (stereo not given) was tested, and the Ki was < 1000 nM.
In the case of `O=C(CC(=O)Nc1ccccn1)Cc1ccc2c(=O)[nH][nH]c2c1`, the Ki is reported as < 1000 nM.
In the case of `O=c1[nH][nH]c2cc(Nc3nc(Nc4cc(C5CC5)[nH]n4)cc(-c4ccccc4Cl)n3)ccc12`, the Ki is reported as < 1000 nM.
In the case of `CCc1c(-c2nc(Nc3cc(C)[nH]n3)c3ccccc3n2)ccc2[nH][nH]c(=O)c12`, the Ki is reported as < 1000 nM.
In the case of `Cn1cnc(NC2CCCC(C(C)(C)c3ccc4c(=O)[nH][nH]c4c3)C2)c1` (stereo not given), the Ki is reported as < 1000 nM.
With `Cc1cc(Nc2cc(Oc3ccc4c(=O)[nH][nH]c4c3)nc3ccccc23)n[nH]1` the Ki was < 1000 nM.
With `O=c1[nH][nH]c2cc(Nc3nc(Nc4cc(C5CCCC5)[nH]n4)c4ccccc4n3)ccc12` the Ki was < 1000 nM.
In the case of `Cc1cc(Nc2cnnc(-c3ccc4[nH][nH]c(=O)c4c3)c2)n[nH]1`, the Ki is reported as < 1000 nM.
`Cc1cnc(NC(=O)CCNc2ccc3c(=O)[nH][nH]c3c2)s1` was tested, and the Ki was < 1000 nM.
`O=C(CCNc1ccc2c(=O)[nH][nH]c2c1)Nc1ccccn1` was tested, and the Ki was < 1000 nM.
For `Cc1cc(Nc2cc(C)[nH]n2)nc(COc2ccc3[nH][nH]c(=O)c3c2)n1`, the Ki was < 1000 nM.
In the case of `O=c1[nH][nH]c2cc(Nc3nc(Nc4cc(C5CC5)[nH]n4)c4ccc(Cl)cc4n3)ccc12`, the Ki is reported as < 1000 nM.
In the case of `O=c1[nH][nH]c2cc(CCC3CCCC3Nc3nccnn3)ccc12` (stereo not given), the Ki is reported as < 1000 nM.
`O=c1[nH][nH]c2cc(NOCCNc3nccnn3)ccc12` was tested, and the Ki was < 1000 nM.
`Cc1cc(Nc2nc(-c3ccc4[nH][nH]c(=O)c4c3Cl)nc(C)c2C)n[nH]1` was tested, and the Ki was < 1000 nM.
`Cc1cnc(NC2COCC(Sc3ccc4c(=O)[nH][nH]c4c3)C2)s1` (stereo not given) was tested, and the Ki was < 1000 nM.
In the case of `O=c1[nH][nH]c2cc(Nc3cccc(Nc4cc(C5CC5)[nH]n4)n3)ccc12`, the Ki is reported as < 1000 nM.
In the case of `COc1cccc2c(Nc3cc(C4CC4)[nH]n3)nc(Sc3ccc4c(=O)[nH][nH]c4c3)nc12`, the Ki is reported as < 1000 nM.
`Cc1nc(-c2cc3c(=O)[nH][nH]c3cc2Cl)cc(Nc2n[nH]c3ccc(F)cc23)c1C` was tested, and the Ki was < 1000 nM.
With `Cc1cnc(NOCCSc2ccc3c(=O)[nH][nH]c3c2)s1` the Ki was < 1000 nM.
In the case of `Cc1cc(Nc2cc(Cc3ccc4c(=O)[nH][nH]c4c3)nc3ccccc23)n[nH]1`, the Ki is reported as < 1000 nM.
With `O=c1[nH][nH]c2cc(Nc3cccc(Nc4ccccn4)c3)ccc12` the Ki was < 1000 nM.
With `Cn1cnc(NC2CCCC2CNc2ccc3c(=O)[nH][nH]c3c2)c1` (stereo not given) the Ki was < 1000 nM.
`O=c1[nH][nH]c2cc(NCC3CCCC3Nc3ccccn3)ccc12` (stereo not given) was tested, and the Ki was < 1000 nM.
For `COC(=O)c1cc(Nc2cc(C)[nH]n2)nc(Sc2ccc3c(=O)[nH][nH]c3c2)n1`, the Ki was < 1000 nM.
For `O=c1[nH][nH]c2cc(CC3COCC(Nc4cc(C5CC5)[nH]n4)C3)ccc12` (stereo not given), the Ki was < 1000 nM.
With `O=c1[nH][nH]c2cc(Nc3nc(Nc4cc(C5CC5)[nH]n4)cc(Oc4ccccc4)n3)ccc12` the Ki was < 1000 nM.
In the case of `O=c1[nH][nH]c2ccc(-c3cnnc(Nc4cc(C5CC5)[nH]n4)c3)cc12`, the Ki is reported as < 1000 nM.
`O=c1[nH][nH]c2cc(NOCCNc3cc(C4CC4)[nH]n3)ccc12` was tested, and the Ki was < 1000 nM.
With `Cc1cc(Nc2nc(Sc3ccc4c(=O)[nH][nH]c4c3)nc3cc(N)ccc23)n[nH]1` the Ki was < 1000 nM.
`O=C(CCNc1ccccn1)Oc1ccc2c(=O)[nH][nH]c2c1` was tested, and the Ki was < 1000 nM.
In the case of `CC(=O)Nc1ccc(Sc2cc(Nc3cc(C)[nH]n3)nc(-c3ccc4[nH][nH]c(=O)c4c3)n2)cc1`, the Ki is reported as < 1000 nM.
`O=c1[nH][nH]c2cc(Nc3nc(Nc4cc(C5CC5)[nH]n4)nc(-c4ccccc4)n3)ccc12` was tested, and the Ki was < 1000 nM.
In the case of `O=c1[nH][nH]c2cc(Oc3nc(Nc4cc(C5CC5)[nH]n4)c4ccccc4n3)ccc12`, the Ki is reported as < 1000 nM.
With `O=c1[nH][nH]c2cc(CC3CCCC(Nc4cc(C5CC5)[nH]n4)C3)ccc12` (stereo not given) the Ki was < 1000 nM.
`Cc1cc(Nc2nc(Oc3ccc4c(=O)[nH][nH]c4c3)nc3ccccc23)n[nH]1` was tested, and the Ki was < 1000 nM.
For `Cn1cnc(NC(=O)CCOc2ccc3c(=O)[nH][nH]c3c2)c1`, the Ki was < 1000 nM.
With `Cn1cnc(NC2CCCC2CSc2ccc3c(=O)[nH][nH]c3c2)c1` (stereo not given) the Ki was < 1000 nM.
With `O=c1[nH][nH]c2cc(SCC3CCCC3Nc3cc(C4CC4)[nH]n3)ccc12` (stereo not given) the Ki was < 1000 nM.
In the case of `COCc1cc(Nc2cc(C)[nH]n2)nc(Nc2ccc3c(=O)[nH][nH]c3c2)n1`, the Ki is reported as < 1000 nM.
